Test results reported in ChEMBL document CHEMBL4145572, “Non-covalent Small-Molecule Kelch-like ECH-Associated Protein 1-Nuclear Factor Erythroid 2-Related Factor 2 (Keap1-Nrf2) Inhibitors and Their Potential for Targeting Central Nervous System Diseases” (J Med Chem, 2018).

Experiments:
[1] = Ratio of unbound drug level in mouse brain to plasma; type: ADME; conditions: read-out: K(p,uu,brain)
[2] = Ratio of unbound drug level in Mdr1a/1b/Bcrp knock-out mouse brain to plasma; type: ADME; conditions: read-out: K(p,uu,brain)
Keap1/Nrf2 [3] = target: T1, Keap1/Nrf2 (Homo sapiens, UniProt Q14145); test: Inhibition of Keap1/NRF2 interaction in human BEAS-2B cells assessed as upregulation of NQ01 after 48 hrs by MTT assay; type: cell-based
[4] = target: T2, Kelch-like ECH-associated protein 1 (Homo sapiens, UniProt Q14145); test: Inhibition of human Keap1 kelch domain (321 to 609 residues) binding to TAMRA-labeled Nrf2-ETGE peptide after 1 hr by fluorescence polarization assay
MDR1 = test: Efflux ratio of apparent permeability in MDCK-MDR1 cells at 10 uM up to 120 mins; type: ADME, cell-based, Canis lupus familiaris; conditions: dog
Keap1/Nrf2 [5] = target: T1, Keap1/Nrf2; test: Inhibition of Keap1 kelch domain (unknow origin)/Nrf2-ETGE peptide (unknown origin) interaction by fluorescence polarization assay; type: protein assay
Keap1/Nrf2 [6] = target: T1, Keap1/Nrf2; test: Inhibition of full length Flag/His-tagged Keap1 kelch domain (unknown origin)/full length Avi-tagged Nrf2 (unknown origin) interaction after 2.25 hrs by TR-FRET assay; type: protein assay
[7] = target: T2, Kelch-like ECH-associated protein 1; test: Activation of human GST-tagged Keap1-DC (321 to 609 residues) expressed in human Huh transformed cells after 16 hrs by ARE-based steady-glo luciferase reporter gene assay; type: cell-based

T1 sequence (Q16236 whole entry, the tested form may be a part): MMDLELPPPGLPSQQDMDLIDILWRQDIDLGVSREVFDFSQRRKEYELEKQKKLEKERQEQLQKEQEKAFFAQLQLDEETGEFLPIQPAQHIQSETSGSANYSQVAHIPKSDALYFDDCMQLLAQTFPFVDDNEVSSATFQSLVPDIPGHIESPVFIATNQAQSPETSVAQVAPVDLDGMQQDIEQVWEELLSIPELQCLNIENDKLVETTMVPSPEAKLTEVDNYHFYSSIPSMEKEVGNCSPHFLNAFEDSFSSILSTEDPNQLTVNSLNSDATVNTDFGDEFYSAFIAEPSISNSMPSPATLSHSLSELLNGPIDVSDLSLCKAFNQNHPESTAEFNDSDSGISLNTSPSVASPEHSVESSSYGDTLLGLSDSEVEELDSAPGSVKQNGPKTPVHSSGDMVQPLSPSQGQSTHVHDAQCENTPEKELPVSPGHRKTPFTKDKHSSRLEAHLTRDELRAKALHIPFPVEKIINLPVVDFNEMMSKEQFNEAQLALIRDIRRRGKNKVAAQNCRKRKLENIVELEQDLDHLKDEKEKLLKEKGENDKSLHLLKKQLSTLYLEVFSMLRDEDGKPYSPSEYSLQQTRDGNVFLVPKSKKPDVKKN
T1 sequence (Q14145 whole entry, the tested form may be a part): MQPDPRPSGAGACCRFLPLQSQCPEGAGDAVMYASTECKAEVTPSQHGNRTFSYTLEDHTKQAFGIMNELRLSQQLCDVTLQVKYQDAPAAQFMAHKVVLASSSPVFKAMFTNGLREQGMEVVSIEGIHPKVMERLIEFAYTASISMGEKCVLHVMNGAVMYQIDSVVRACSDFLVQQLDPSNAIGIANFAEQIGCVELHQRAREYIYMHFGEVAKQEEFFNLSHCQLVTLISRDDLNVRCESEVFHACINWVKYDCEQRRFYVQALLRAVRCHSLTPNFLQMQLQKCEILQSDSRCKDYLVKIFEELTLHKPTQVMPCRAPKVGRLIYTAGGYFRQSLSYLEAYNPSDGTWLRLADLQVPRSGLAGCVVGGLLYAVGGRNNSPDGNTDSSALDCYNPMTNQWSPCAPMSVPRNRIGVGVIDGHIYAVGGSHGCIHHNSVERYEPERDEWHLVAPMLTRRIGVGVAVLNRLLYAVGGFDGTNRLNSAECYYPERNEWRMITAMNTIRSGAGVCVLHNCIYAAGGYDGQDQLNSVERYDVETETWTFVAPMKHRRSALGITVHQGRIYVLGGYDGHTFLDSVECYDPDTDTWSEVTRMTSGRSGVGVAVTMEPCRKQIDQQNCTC
T2 sequence (Q14145 whole entry, the tested form may be a part): as above

| Kp uu [1] | efflux ratio at 2 h, 10 µM (MDR1) | IC50 (Keap1/Nrf2 [5]) [nM] | SMILES | further results |
| --- | --- | --- | --- | --- |
| < 0.01 | – | – | O=C(O)[C@H]1CCCC[C@H]1C(=O)N1CCc2ccccc2[C@H]1CN1C(=O)c2ccccc2C1=O | Kp uu [2]: 0.4 |
| – | – | – | CCCC[C@@H]1CCCN1C(=O)c1cccc(-c2cccc(-n3ncc(C(=O)O)c3C3CC3)c2)c1 | EC50 (Keap1/Nrf2 [3]): 79 nM; IC50 [4]: 10 to 100 nM |
| – | 7.5 | 1100 | O=C(O)[C@H]1CCCC[C@H]1C(=O)N1CCc2ccccc2[C@H]1CN1Cc2ccccc2C1=O | – |
| – | – | – | C[C@H](Oc1cccc(-c2cccc(-n3ncc(C(=O)O)c3[C@@H]3C[C@H]3c3cn(C)nn3)c2)c1)C1CCCCC1 | IC50 (Keap1/Nrf2 [6]): < 10 nM |
| – | – | – | O=C(NCc1ccccn1)Nc1nnc(-c2ccco2)o1 | EC2 [7]: 1.36 µM |
| < 0.01 | – | – | O=C(O)[C@H]1NCCC[C@H]1C(=O)N1CCc2ccccc2[C@H]1CN1C(=O)c2ccccc2C1=O | – |
| 0.9 | 0.7 | > 100000 | O=C(O)[C@H]1CCCC[C@H]1C(=O)N1CCc2ccccc2[C@H]1Cc1ccccc1 | – |
| 0.3 | 0.7 | > 100000 | O=C1c2ccccc2C(=O)N1C[C@@H]1c2ccccc2CCN1C(=O)C1CCCCC1 | – |
